Measurements reported in PubChem BioAssay (NCI).
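Method: 48-hour compound exposure of cells in 96-well plates, five concentrations, linear interpolation of endpoints. Definition used: TGI = concentration required for complete inhibition of growth.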

Assays:
Assay in all cases: DTP human tumour cell line panel, 48 h
[1] = tested on: A498 renal
[2] = tested on: OVCAR-5 ovarian
[3] = tested on: MDA-MB-435
[4] = tested on: SK-OV-3 ovarian
[5] = tested on: PC-3 prostate
[6] = tested on: HS 578T breast
[7] = tested on: SW-620 colon
[8] = tested on: HT29 colon
[9] = tested on: U251 CNS
[10] = tested on: SK-MEL-5 melanoma
[11] = tested on: CAKI-1 renal
[12] = tested on: HCC-2998 colon
[13] = tested on: OVCAR-8 ovarian
[14] = tested on: OVCAR-4 ovarian
[15] = tested on: 786-0 renal
[16] = tested on: HOP-62 NSCLC
[17] = tested on: HCT-116 colon
[18] = tested on: IGROV1 ovarian
[19] = tested on: MCF7 breast
[20] = tested on: EKVX NSCLC
[21] = tested on: NCI-H226 lung
[22] = tested on: UACC-62 melanoma
[23] = tested on: LOX IMVI melanoma
[24] = tested on: SF-295 CNS
[25] = tested on: NCI-H23 lung
[26] = tested on: SK-MEL-28 melanoma
[27] = tested on: MDA-N
[28] = tested on: HCT-15 colon
[29] = tested on: SNB-19 CNS
[30] = tested on: TK-10 renal
[31] = tested on: RXF 393 renal
[32] = tested on: NCI-H522 lung
[33] = tested on: COLO 205 colon
[34] = tested on: NCI/ADR-RES ovarian
[35] = tested on: SR leukemia
[36] = tested on: BT-549 breast
[37] = tested on: T-47D breast
[38] = tested on: SNB-75 CNS
[39] = tested on: A549 NSCLC
[40] = tested on: RPMI-8226 leukemia
[41] = tested on: ACHN renal
[42] = tested on: UACC-257 melanoma
[43] = tested on: MALME-3M melanoma
[44] = tested on: MDA-MB-231 breast
[45] = tested on: CCRF-CEM leukemia
[46] = tested on: UO-31 renal
[47] = tested on: KM12 colon
[48] = tested on: K-562 leukemia
[49] = tested on: MOLT-4 leukemia
[50] = tested on: OVCAR-3 ovarian
[51] = tested on: M14 melanoma
[52] = tested on: SF-268 CNS
[53] = tested on: SK-MEL-2 melanoma
[54] = tested on: SN12C renal
[55] = tested on: DU-145 prostate
[56] = tested on: SF-539 CNS
[57] = tested on: NCI-H460 lung
[58] = tested on: HL-60(TB) leukemia
[59] = tested on: HOP-92 NSCLC

CC(N=C(N)N)C(=O)O (stereo not given)
TGI [1]: > 100 µM
TGI [2]: > 100 µM
TGI [3]: > 100 µM
TGI [4]: > 100 µM
TGI [5]: > 100 µM
TGI [6]: > 100 µM
TGI [7]: > 100 µM
TGI [8]: > 100 µM
TGI [9]: > 100 µM
TGI [10]: > 100 µM
TGI [11]: > 100 µM
TGI [12]: > 100 µM
TGI [13]: > 100 µM
TGI [14]: > 100 µM
TGI [15]: > 100 µM
TGI [16]: > 100 µM
TGI [17]: > 100 µM
TGI [18]: > 100 µM
TGI [19]: > 100 µM
TGI [20]: > 100 µM
TGI [21]: > 100 µM
TGI [22]: > 100 µM
TGI [23]: > 100 µM
TGI [24]: > 100 µM
TGI [25]: > 100 µM
TGI [26]: > 100 µM
TGI [27]: > 100 µM
TGI [28]: > 100 µM
TGI [29]: > 100 µM
TGI [30]: > 100 µM
TGI [31]: > 100 µM
TGI [32]: > 100 µM
TGI [33]: > 100 µM
TGI [34]: > 100 µM
TGI [35]: > 100 µM
TGI [36]: > 100 µM
TGI [37]: > 100 µM
TGI [38]: > 100 µM
TGI [39]: > 100 µM
TGI [40]: > 100 µM
TGI [41]: > 100 µM
TGI [42]: > 100 µM
TGI [43]: > 100 µM
TGI [44]: > 100 µM
TGI [45]: > 100 µM
TGI [46]: > 100 µM
TGI [47]: > 100 µM
TGI [48]: > 100 µM
TGI [49]: > 100 µM
TGI [50]: > 100 µM
TGI [51]: > 100 µM
TGI [52]: > 100 µM
TGI [53]: > 100 µM
TGI [54]: > 100 µM
TGI [55]: > 100 µM

CN(C)/C(N)=N/C(N)=Nc1cccc(Cl)c1
TGI [2]: > 100 µM
TGI [3]: > 100 µM
TGI [4]: > 100 µM
TGI [5]: > 100 µM
TGI [6]: > 100 µM
TGI [7]: > 100 µM
TGI [8]: > 100 µM
TGI [9]: > 100 µM
TGI [10]: 74.6 µM
TGI [11]: > 100 µM
TGI [12]: > 100 µM
TGI [13]: > 100 µM
TGI [14]: > 100 µM
TGI [15]: > 100 µM
TGI [16]: > 100 µM
TGI [17]: > 100 µM
TGI [18]: 77.9 µM
TGI [19]: > 100 µM
TGI [20]: > 100 µM
TGI [21]: 79.3 µM
TGI [22]: > 100 µM
TGI [23]: > 100 µM
TGI [24]: > 100 µM
TGI [25]: > 100 µM
TGI [26]: > 100 µM
TGI [27]: > 100 µM
TGI [28]: > 100 µM
TGI [29]: > 100 µM
TGI [30]: > 100 µM
TGI [33]: 49.8 µM
TGI [34]: > 100 µM
TGI [35]: > 100 µM
TGI [36]: 92.5 µM
TGI [37]: 77.2 µM
TGI [38]: > 100 µM
TGI [39]: > 100 µM
TGI [40]: > 100 µM
TGI [41]: > 100 µM
TGI [42]: > 100 µM
TGI [43]: > 100 µM
TGI [44]: > 100 µM
TGI [46]: > 100 µM
TGI [56]: > 100 µM
TGI [47]: > 100 µM
TGI [48]: > 100 µM
TGI [49]: > 100 µM
TGI [50]: > 100 µM
TGI [57]: > 100 µM
TGI [51]: > 100 µM
TGI [52]: > 100 µM
TGI [53]: > 100 µM
TGI [54]: > 100 µM

COC(=O)/C=C/c1cnc2c(c1)oc(=O)n2CCc1ccccn1
TGI [1]: > 100 µM
TGI [2]: > 100 µM
TGI [3]: 89 µM
TGI [4]: > 100 µM
TGI [5]: > 100 µM
TGI [58]: 9.78 µM
TGI [6]: > 100 µM
TGI [7]: > 100 µM
TGI [8]: > 100 µM
TGI [9]: > 100 µM
TGI [10]: > 100 µM
TGI [12]: > 100 µM
TGI [14]: > 100 µM
TGI [15]: > 100 µM
TGI [16]: > 100 µM
TGI [17]: > 100 µM
TGI [18]: > 100 µM
TGI [19]: > 100 µM
TGI [20]: > 100 µM
TGI [21]: > 100 µM
TGI [22]: > 100 µM
TGI [23]: > 100 µM
TGI [24]: > 100 µM
TGI [25]: > 100 µM
TGI [26]: > 100 µM
TGI [27]: > 100 µM
TGI [28]: > 100 µM
TGI [29]: > 100 µM
TGI [30]: > 100 µM
TGI [33]: > 100 µM
TGI [34]: > 100 µM
TGI [35]: > 100 µM
TGI [36]: > 100 µM
TGI [37]: > 100 µM
TGI [38]: > 100 µM
TGI [39]: > 100 µM
TGI [40]: > 100 µM
TGI [41]: > 100 µM
TGI [42]: > 100 µM
TGI [43]: > 100 µM
TGI [44]: > 100 µM
TGI [45]: 69 µM
TGI [46]: > 100 µM
TGI [56]: > 100 µM
TGI [47]: > 100 µM
TGI [48]: > 100 µM
TGI [49]: > 100 µM
TGI [50]: > 100 µM
TGI [57]: > 100 µM
TGI [51]: > 100 µM
TGI [52]: > 100 µM
TGI [53]: > 100 µM
TGI [54]: > 100 µM

CC1CC(=O)Nc2cc(Cl)ccc2N1C(=O)C1CC1 (stereo not given)
TGI [1]: > 100 µM
TGI [2]: > 100 µM
TGI [3]: > 100 µM
TGI [4]: > 100 µM
TGI [5]: > 100 µM
TGI [58]: > 100 µM
TGI [6]: > 100 µM
TGI [7]: > 100 µM
TGI [8]: > 100 µM
TGI [9]: > 100 µM
TGI [10]: > 100 µM
TGI [11]: > 100 µM
TGI [12]: > 100 µM
TGI [13]: > 100 µM
TGI [14]: > 100 µM
TGI [15]: > 100 µM
TGI [16]: > 100 µM
TGI [17]: > 100 µM
TGI [18]: > 100 µM
TGI [19]: > 100 µM
TGI [20]: > 100 µM
TGI [21]: > 100 µM
TGI [23]: > 100 µM
TGI [24]: > 100 µM
TGI [25]: > 100 µM
TGI [26]: > 100 µM
TGI [27]: > 100 µM
TGI [28]: > 100 µM
TGI [29]: > 100 µM
TGI [30]: > 100 µM
TGI [31]: > 100 µM
TGI [32]: > 100 µM
TGI [33]: > 100 µM
TGI [36]: > 100 µM
TGI [37]: > 100 µM
TGI [59]: > 100 µM
TGI [39]: > 100 µM
TGI [40]: > 100 µM
TGI [41]: > 100 µM
TGI [42]: > 100 µM
TGI [43]: > 100 µM
TGI [44]: > 100 µM
TGI [45]: > 100 µM
TGI [46]: > 100 µM
TGI [56]: > 100 µM
TGI [47]: > 100 µM
TGI [48]: > 100 µM
TGI [49]: > 100 µM
TGI [50]: > 100 µM
TGI [57]: > 100 µM
TGI [51]: > 100 µM
TGI [52]: > 100 µM
TGI [53]: > 100 µM
TGI [54]: > 100 µM
TGI [55]: > 100 µM
